In assay [1] the target is T1, N-terminal GST-tagged recombinant human Flt3, residues 564-end (Homo sapiens, UniProt P36888).
T1 construct: recombinant human Flt3, residues 564-end; GST (N); purchased Upstate USA Inc, 706 Forest Street, Charlottesville, Va
T1 sequence (P36888 564-993 limits assumed): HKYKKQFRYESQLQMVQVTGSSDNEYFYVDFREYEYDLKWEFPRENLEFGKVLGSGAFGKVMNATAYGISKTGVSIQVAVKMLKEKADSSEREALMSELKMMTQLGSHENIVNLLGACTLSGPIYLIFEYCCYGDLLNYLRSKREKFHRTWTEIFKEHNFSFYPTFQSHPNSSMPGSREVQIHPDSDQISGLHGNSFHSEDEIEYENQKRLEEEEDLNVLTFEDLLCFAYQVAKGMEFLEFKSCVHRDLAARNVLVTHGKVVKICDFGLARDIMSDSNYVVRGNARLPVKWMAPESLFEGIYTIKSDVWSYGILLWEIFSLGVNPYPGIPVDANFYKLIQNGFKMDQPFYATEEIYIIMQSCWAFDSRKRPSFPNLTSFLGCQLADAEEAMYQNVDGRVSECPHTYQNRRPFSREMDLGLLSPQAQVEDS
Kind of assay: Flt3 kinase inhibition assay (33P-ATP filter assay). Format: biochemical. The note with it: 40 minutes at room temperature. The protocol: (§1) Compounds were assayed for Flt3 kinase inhibitory activity using N-terminal GST-tagged recombinant human Flt3, residues 564-end (Upstate USA Inc, 706 Forest Street, Charlottesville, Va.). Serial dilutions of compound were assayed in a final reaction volume of 25 μL by incubating a solution of the above Flt3 kinase (5-10 mU), 8 mM MOPS (3-(N-morpholino) propanesulfonic acid) pH 7.0, 0.2 mM EDTA (ethylenediamine tetracetic acid), 50 μM amino acid sequence EAIYAAPFAKKK (Upstate USA Inc, 706 Forest Street, Charlottesville, Va.), and 10 mM magnesium acetate and [γ-^33P-ATP] (specific activity of about 500 cpm/μmol, concentration as required). The reaction was initiated by the addition of the magnesium acetate and [γ-^33P-ATP] mixture. After incubation for 40 minutes at room temperature, the reaction was stopped by the addition of 5 μL of a 3% phosphoric acid solution. A 10 μL aliquote of the reaction was then spotted onto a P30 filtermat (PerkinElmer, Wellesley, Mass.) and washed three times for five minutes in 75 mM phosphoric acid and once in methanol prior to drying and scintillation counting. Inhibition of Flt3 activity was determined by comparison to assays that contained no inhibitor.

The test system of assay [2] is HCT116 cells. Kind of assay: Whole cell cytotoxicity assay, Sulforhodamine B. Type of assay: cell-based. The note with it: Homo sapiens, HCT-116, HCT116, 96 hours incubation, SRB; for GI50: read-out: GI50 HCT116 cell growth; for IC50: read-out: IC50 values in this assay (HCT116 cell growth). Here is the method: Human tumor-derived cell lines, HCT116 or MCF7 (ATCC) were plated in a 96 well plate in DMEM containing 10% fetal bovine serum and 2 mM L-glutamine at a density of 500 HCT116 cells or 1,000 MCF7 cells per well and incubated at 37° C., 5% CO2, for 24 hours prior to the addition of experimental compounds. Compounds were added using the dilution series indicated to duplicate plates and the cells were incubated in media plus compound for 96 hours. An additional plate was fixed in 10% TCA at the time of the addition of compound to provide a measurement of the cell population at time zero, the time of drug addition. Following the 96 hour incubation, cells were fixed in situ by gently aspirating off the culture media and then adding 50 ul of ice cold 10% TCA per well and incubation at 4° C. for 60 minutes. The plates were washed with tap water five times and allowed to air dry for 5 minute. 50 ul of a 0.4% (w/v) Sulforhodamine B solution in 1% (v/v) acetic acid was added per well and the cells were incubated for 30 minutes at room temperature. Following staining, plates were washed four times with 1% acetic acid to remove any unbound dye and then allowed to air dry for 5 minutes. The stain was solubilized with 100 ul of 10 mM Tris pH 10.5 per well and placed on an orbital rotator for 5 minutes. The absorbance was read at 570 nm. Percentage growth was calculated using the absorbance readings from the time zero plate (Tz) and the dilution series plate […] which included a column of cells grown in media without compound as a control (C) using the formulas:
[(Ti−Tz)/(C−Tz)]×100 for concentrations for which Ti>/=Tz
[(Ti−Tz)/Tz]×100 for concentrations for which Ti<Tz.
Three dose response parameters were calculated for each experimental agent. Growth inhibition of 50% (GI50) was calculated from [(Ti−Tz)/(C−Tz)]×100=50, which was the drug concentration resulting in a 50% reduction in the net protein increase (as measured by SRB staining) in control cells during the drug incubation. The drug concentration resulting in total growth inhibition (TGI) was calculated from Ti=Tz. The LC50 (concentration of drug resulting in a 50% reduction in the measured protein at the end of the drug treatment as compared to that at the beginning) indicating a net loss of cells following treatment ws calculated from [(Ti−Tz)/Tz]×100=−50. Values are calculated for each of these three parameters if the level of activity was reached; however, if the effect was not reached or was exceeded, the value for that parameter is expressed as greater or less than the maximum or minimum concentration tested.

Assay [3] addresses T2, N-terminal His-tagged human Src (Homo sapiens, UniProt P12931).
T2 construct: His (N); purchased Upstate USA Inc, 706 Forest Street, Charlottesville, Va
Kind of assay: Src kinase inhibition assay (33P-ATP filter assay). Format: biochemical. The protocol: Compounds were assayed for Src kinase inhibitory activity using N-terminal His-tagged human Src (Upstate USA Inc, 706 Forest Street, Charlottesville, Va.). Serial dilutions of compound were assayed in a final reaction volume of 25 μL by incubating a solution of the above Src kinase (5-10 mU), 8 mM MOPS (3-(N-morpholino) propanesulfonic acid) pH 7.0, 0.2 mM EDTA (ethylenediamine tetracetic acid), 250 μM amino acid sequence KVEKIGEGTYGVVYK (Upstate USA Inc, 706 Forest Street, Charlottesville, Va.), and 10 mM magnesium acetate and [γ-^33P-ATP] (specific activity of about 500 cpm/μmol, concentration as required). The reaction was initiated by the addition of the magnesium acetate and [γ-^33P-ATP] mixture. After incubation for 40 minutes at room temperature, the reaction was stopped by the addition of 5 μL of a 3% phosphoric acid solution. A 10 μL aliquote of the reaction was then spotted onto a P30 filtermat (PerkinElmer, Wellesley, Mass.) and washed three times for five minutes in 75 mM phosphoric acid and once in methanol prior to drying and scintillation counting. Inhibition of Src activity was determined by comparison to assays that contained no inhibitor.

The target of assay [4] is T3, N-terminal His6-tagged recombinant human KDR, residues 790-end (Homo sapiens, UniProt P35968).
T3 construct: recombinant human KDR, residues 790-end; His6 (N); purchased Upstate USA Inc, 706 Forest Street, Charlottesville, Va
Kind of assay: KDR kinase inhibition assay (33P-ATP filter assay). Format: biochemical. Here is the method: as §1, with “KDR” for “Flt3”, “His6-tagged” for “GST-tagged”, “KDR,” for “Flt3,”, “790-end” for “564-end”, “0.33 mg/mL myelin basic protein” for “50 μM amino acid sequence EAIYAAPFAKKK”

Setting [5] is: group with IC50 greater than 100 nM.

A value given as a limit tells only on which side of the number the result lay.

Consider nine compounds from US20090029992A1, “SUBSTITUTED PYRAZOLE COMPOUNDS” (priority 2007, published 2009).

The IC50 is the point on the concentration scale where inhibition reaches its midpoint. The term GI50 denotes the concentration giving 50% growth inhibition.

T2 sequence (P12931 whole entry): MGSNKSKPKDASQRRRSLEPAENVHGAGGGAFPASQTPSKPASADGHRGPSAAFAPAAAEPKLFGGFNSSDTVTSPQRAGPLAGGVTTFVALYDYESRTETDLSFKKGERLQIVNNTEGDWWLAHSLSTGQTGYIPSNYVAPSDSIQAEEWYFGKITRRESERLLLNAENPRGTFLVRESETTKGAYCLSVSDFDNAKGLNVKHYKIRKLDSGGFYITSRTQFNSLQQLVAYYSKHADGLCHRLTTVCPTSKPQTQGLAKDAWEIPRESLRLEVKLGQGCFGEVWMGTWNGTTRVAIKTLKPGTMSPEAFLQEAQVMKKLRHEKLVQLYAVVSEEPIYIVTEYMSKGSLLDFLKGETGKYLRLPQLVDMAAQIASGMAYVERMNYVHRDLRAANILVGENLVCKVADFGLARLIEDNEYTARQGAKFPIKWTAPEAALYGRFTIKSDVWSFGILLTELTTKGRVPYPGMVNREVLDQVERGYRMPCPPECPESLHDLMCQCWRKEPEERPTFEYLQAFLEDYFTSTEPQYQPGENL
T3 sequence (P35968 790-1356 limits assumed): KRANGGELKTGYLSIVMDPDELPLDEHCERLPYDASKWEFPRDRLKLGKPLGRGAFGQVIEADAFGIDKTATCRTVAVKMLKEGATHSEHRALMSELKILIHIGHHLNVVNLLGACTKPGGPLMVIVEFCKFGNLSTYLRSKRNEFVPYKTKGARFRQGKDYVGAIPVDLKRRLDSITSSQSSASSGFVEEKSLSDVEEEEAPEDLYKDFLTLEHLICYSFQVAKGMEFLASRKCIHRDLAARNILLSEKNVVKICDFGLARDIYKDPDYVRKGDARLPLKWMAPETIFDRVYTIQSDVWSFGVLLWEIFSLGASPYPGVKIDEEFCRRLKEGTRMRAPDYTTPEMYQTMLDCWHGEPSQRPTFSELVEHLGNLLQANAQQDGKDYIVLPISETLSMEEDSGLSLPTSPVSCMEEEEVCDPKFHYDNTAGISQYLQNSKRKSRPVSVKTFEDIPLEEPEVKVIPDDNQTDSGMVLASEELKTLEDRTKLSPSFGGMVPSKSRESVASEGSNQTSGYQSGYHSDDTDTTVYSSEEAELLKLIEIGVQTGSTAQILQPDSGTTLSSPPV

In the case of `Cc1cc(Nc2cc(N(C)CCN(C)C)nc(-c3ccccc3Cl)n2)n[nH]1` [Compound 50, 2-(2-chlorophenyl)-N4-(2-(dimethylamino)ethyl)-N4-methyl-N6-(5-methyl-1H-pyrazol-3-yl)pyrimidine-4,6-diamine], the 50% inhibitory concentration (IC50) was at most 100 nM in assay [1]; 1000 to 10000 nM in assay [2]; at most 100 nM in assay [3] (40 minutes at room temperature); at most 1000 nM in assay [3] (setting [5]); at most 100 nM in assay [4] (40 minutes at room temperature). In addition, the concentration for 50% growth inhibition (GI50) in assay [2] was at most 1000 nM.

For the compound `COc1ccccc1-c1nc(Nc2cc(C)[nH]n2)cc(N2CCN(C)CC2)n1` [Compound 43, 2-(2-methoxyphenyl)-N-(5-methyl-1H-pyrazol-3-yl)-6-(4-methylpiperazin-1-yl)pyrimidin-4-amine], the IC50 is at most 100 nM in assay [1], 1000 to 10000 nM in assay [2], at most 1000 nM in assay [3] (setting [5]) and at most 1000 nM in assay [4] (setting [5]).

With `Cc1cc(Nc2cc(N(C)CCN(C)C)nc(-c3cccc4ccccc34)n2)n[nH]1` [Example 141, N^4-(2-(dimethylamino)ethyl)-N^4-methyl-N^6-(5-methyl-1H-pyrazol-3-yl)-2-(naphthalen-1-yl)pyrimidine-4,6-diamine], the figures for the 50% inhibitory concentration (IC50) in assay [1], in assay [3] (setting [5]) and in assay [4] (setting [5]) were at most 100 nM, at most 1000 nM and at most 1000 nM, respectively. Besides, the GI50 in assay [2] was at most 1000 nM.

In the case of `Cc1cc(Nc2cc(N(C)CCN(C)C)nc(-c3cc(F)ccc3F)n2)n[nH]1` [Example 183, 2-(2,5-difluorophenyl)-N^4-(2-(dimethylamino)ethyl)-N^4-methyl-N^6-(5-methyl-1H-pyrazol-3-yl)pyrimidine-4,6-diamine], the IC50 in assay [1] was at most 100 nM; in assay [2], 1000 to 10000 nM; in assay [3] (setting [5]) it was at most 1000 nM; in assay [4] (40 minutes at room temperature), at most 100 nM.

With `Cc1cc(Nc2cc(NC3CCOCC3)nc(-c3ccc4ccccc4c3)n2)n[nH]1` [Example 128, N^4-(5-methyl-1H-pyrazol-3-yl)-2-(naphthalen-2-yl)-N^6-(tetrahydro-2H-pyran-4-yl)pyrimidine-4,6-diamine], the concentration for half-maximal inhibition (IC50) is at most 100 nM in assay [1], 1000 to 10000 nM in assay [2], at most 100 nM in assay [3] (40 minutes at room temperature) and at most 100 nM in assay [4] (40 minutes at room temperature).

Take `CCc1ccccc1-c1nc(Nc2cc(C)[nH]n2)cc(N(C)CCN(C)C)n1` [Example 186, N^4-(2-(dimethylamino)ethyl)-2-(2-ethylphenyl)-N^4-methyl-N^6-(5-methyl-1H-pyrazol-3-yl)pyrimidine-4,6-diamine]: the 50% inhibitory concentration (IC50) in assay [1] is at most 100 nM; in assay [2], 1000 to 10000 nM; in assay [3] (setting [5]) it was at most 1000 nM; in assay [4] (setting [5]), at most 1000 nM.

With `Cc1cc(Nc2cc(N3CCN(C)CC3)nc(-c3ccc(F)cc3F)n2)n[nH]1` [Example 189, 2-(2,4-difluorophenyl)-N-(5-methyl-1H-pyrazol-3-yl)-6-(4-methylpiperazin-1-yl)pyrimidin-4-amine], the half-maximal inhibitory concentration (IC50) in assay [1] was at most 100 nM; in assay [2], 1000 to 10000 nM; in assay [3] (setting [5]), at most 1000 nM; in assay [4] (setting [5]), at most 1000 nM.

As to `Cc1cc(Nc2cc(N(C)CCN(C)C)nc(-c3ccccc3C(F)(F)F)n2)n[nH]1` [Compound 114, N^4-(2-(dimethylamino)ethyl)-N^4-methyl-N^6-(5-methyl-1H-pyrazol-3-yl)-2-(2-(trifluoromethyl)phenyl)pyrimidine-4,6-diamine], the 50% inhibitory concentration (IC50) in assay [1] was at most 100 nM; in assay [2], 1000 to 10000 nM; in assay [3] (setting [5]), at most 1000 nM; in assay [4] (40 minutes at room temperature), at most 100 nM.

On to `Cc1cc(Nc2cc(N(C)CCN(C)C)nc(-c3cccc(C)c3C)n2)n[nH]1` [Example 182, N^4-(2-(dimethylamino)ethyl)-2-(2,3-dimethylphenyl)-N^4-methyl-N^6-(5-methyl-1H-pyrazol-3-yl)pyrimidine-4,6-diamine], for which the concentration for half-maximal inhibition (IC50) was at most 100 nM in assay [1], 1000 to 10000 nM in assay [2], at most 1000 nM in assay [3] (setting [5]) and at most 1000 nM in assay [4] (setting [5]).
